The record followed here is patent publication US12337010B2, “Compositions and methods of treatment using nicotinamide mononucleotide” (Washington University, priority 2017, dated 2025).

One assay addresses T1, 5′-nucleotidase (Mus musculus, UniProt Q61503).
T1 construct: endogenous in cells; host or cells: primary hepatocytes from C57BL/6J mice
T1 sequence (Q61503 29-551): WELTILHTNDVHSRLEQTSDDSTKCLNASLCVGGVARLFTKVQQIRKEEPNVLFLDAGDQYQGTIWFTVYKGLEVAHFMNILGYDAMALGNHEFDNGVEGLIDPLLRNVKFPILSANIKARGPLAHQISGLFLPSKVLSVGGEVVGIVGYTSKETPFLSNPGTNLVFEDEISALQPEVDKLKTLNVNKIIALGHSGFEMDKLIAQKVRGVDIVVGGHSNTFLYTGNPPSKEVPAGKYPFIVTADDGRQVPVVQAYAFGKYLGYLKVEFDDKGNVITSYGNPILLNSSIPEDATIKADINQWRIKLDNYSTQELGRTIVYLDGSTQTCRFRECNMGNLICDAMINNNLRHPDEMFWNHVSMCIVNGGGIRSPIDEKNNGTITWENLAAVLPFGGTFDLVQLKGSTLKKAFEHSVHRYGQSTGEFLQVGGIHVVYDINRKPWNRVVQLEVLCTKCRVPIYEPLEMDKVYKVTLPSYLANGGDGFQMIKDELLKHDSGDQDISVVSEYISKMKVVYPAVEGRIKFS
Put plainly: 5'-nucleotidase activity assay in intact primary hepatocytes (adenosine from AMP by HPLC). Type of assay: cell-based. The conditions noted are these: 500 μM AOPCP, 100 μM AMP. How it is done: The amounts of adenosine produced were determined by HPLC. […] Silencing efficiencies were evaluated by quantitative RT-PCR.
AOPCP inhibits 5′-nucleotidase activity by 97%.

Assay [1] deals with GLP-1 secretion from the ileum. The experiment in a line: GLP-1 secretion from ex vivo ileal explants (ELISA). Type of assay: cell-based, mouse. Conditions: ileal explants of 24-month-old female B6 mice, 20 μM, 4 h, vs 0.2% DMSO. How it is done:
GLP-1 measurement in plasma and in supernatants of ex vivo small intestine explant cultures. Blood was collected after 6 h refeeding (from 10 am to 4 pm) following 24 h fasting (from 9 am to 9 am) from tail veins of 2- or 24-month-old female Slc12a8 knockdown mice and their controls using EDTA-coated tubes. Blood was immediately chilled on ice, centrifuged at 5,000×g at 4° C., and plasma samples were stored at −80° C. Small intestines from gut-specific Slc12a8 knockdown female mice or 12-month-old Slc12a8KO female mice were cut into three segments of the duodenum, jejunum, and ileum with length ratios of 1:3:2 (Wang, H. H., et al., Hepatology, 2007, 45, 998-1006). […] GLP-1 levels in plasma and media were measured by GLP-1 Total ELISA Kit (EMD Millipore, MO) following the manufacturer's instruction. GLP-1 values were normalized by total protein content analyzed by Bradford assay.
The involvement of SIRT1 (Yoon, M. J., et al., Cell Metab., 2015 21, 706-717) and SIRT6 (Jiang, H. et al., Nature, 2013, 496, 110-113) in the observed increase in GLP-1 secretion was examined. […] GLP-1 levels were measured by ELISA in the supernatants from ex vivo ileal explants of 24-month-old female B6 mice cultured with 0.2% DMSO, 20 µM EX527 or 20 μM STK665401 for 4 h (n=3 mice, analyzed using ANOVA with Tukey's test).

On to `Nc1ncnc2c1ncn2[C@@H]1O[C@H](COP(=O)(O)CP(=O)(O)O)[C@@H](O)[C@H]1O` [AOPCP, adenosine-5′-[α,β-methylene]diphosphate], for which the “inhibition of 5′-nucleotidase activity” value against 5′-nucleotidase worked out at 97%.
Regarding `Cn1c(=O)c2cc(S(=O)(=O)Nc3ccc(Cc4ccncc4)cc3)ccc2n(C)c1=O` [STK665401], the GLP-1 secretion result in assay [1] is “not”.
